For one data set, the system named is animals. As to conditions: cited from earlier work.
Data set [1] can be described thus: Naltrexone recovered from IR and ER tablets, 23 mg/mL solutions (Example 4). As to conditions: 23 mg/ml ethanol/water solution, lower proportion of ethanol. How it is done:
To compare formulations of Naltrexone and Naltrexone HCl which will deposit 3.6-9.6 mg of Naltrexone onto small IR tablets, small extended release (“ER”) tablets and large ER tablets, Naltrexone (23 mg/ml) and Naltrexone HCl (23 mg/ml) solutions were used. Six (6) small IR tablets (Homeopathy Blank 5 Grain, Lactose, Lot #: 07090710H3, Exp. 08/23), six (6) small ER Tablets (Mucus Relief Guaifenesin Extended-Release Tablets, 600 mg, Lot #: F07210, Exp. 04/20), and three (3) large ER tablets (Mucus Relief Guaifenesin Extended-Release Tablets, 1200 mg, Lot #: F08474, Exp. 05/20) were tested. Tablets were placed in test tubes or kept in their blister packaging and spiked with a 23 mg/mL spiking solution containing either Naltrexone Base or Naltrexone HCl. Small tablets (IR and ER) were divided into two groups of 3 and coated with a solution prepared with either Naltrexone base (23 mg/ml) or Naltrexone HCl (23 mg/ml). Large ER tablets were spiked with Naltrexone base solution only while remaining in their original blister packaging. Each tablet remained in solution for a period of 2, 6 or 10 minutes before removal and testing form Naltrexone. The large ER tablets spiked with Naltrexone NCl were not completed due to time limitations

Data set [2] in a line: Solubility of naltrexone in ethanol/water. It counts as physicochemical. As to the method:
A solution of naltrexone in 60% Ethanol/40% water at a concentration of 19 mg/ml was achieved without precipitation.
To determine a formulation which will deposit 3.6-9.6 mg of Naltrexone onto small IR tablets within a specified period of time, the ratio of ethanol to water was adjusted to increase solubility of Naltrexone.

The next data set has as its system humans. As to conditions: 800 mg daily for up to one week, human subjects; cited from earlier work.
For a further data set, the system named is rat. As to conditions: cited from earlier work.
Data set [3] concerns pharmacologic effects of 25 mg of intravenously administered heroin. As to conditions: cited from earlier work.
Data set [4] is described as follows: Naltrexone HCl solubility, HPLC analysis. It counts as physicochemical. As to conditions: for solubility at 2 h / solubility at 1 h / solubility: thermodynamic from solid; for solubility at 1 h: sample 50 mg/mL. How it is done: To determine the solubility of Naltrexone HCl in solutions of 100% water or 60%/40% Ethanol/water, solutions of Naltrexone HCl were prepared at 50 mg/mL and 100 mg/mL in 100% water or 60%/40% ethanol/water for a total of 4 solutions. Solutions were vortex mixed, placed on a mechanical shaker and evaluated every 30 minutes for complete dissolution. Once fully dissolved, each solution was prepared for HPLC by diluting to 2 mg/mL in methanol and 0.1M phosphoric acid and analyzed on an HPLC.
The 50 mg/mL samples were fully dissolved into solution following 1 hour on the mechanical shaker with periodic vortex mixing. The 100 mg/mL solution prepared in the ethanol/water mixture was dissolved after a total of 2 hours shaking with periodic vertex mixing. The 100 mg/mL solution in 100% water was also sonicated. HPLC results are included in Table 3.

The test system of another data set is guinea pig. As to conditions: cited from earlier work.

Counter-ions that a name gives are not always drawn. Like-named read-outs stand apart in the source and are kept apart here.

This is an account of results in patent publication US20200345721A1, “Device for Deterring Abuse of Drugs” (EIGHTY EIGHT PHARMA, INC., priority 2019, published 2020).

Consider `O=C1CC[C@@]2(O)[C@H]3Cc4ccc(O)c5c4[C@@]2(CCN3CC2CC2)[C@H]1O5` [Naltrexone Base, naltrexone], for which the cause of mortalities result in the data set with animals (high-dose administration, animals) is given as “tonic-clonic convulsions and/or respiratory failure”. The “stability of the solution” value in data set [1] was “comes out of solution over time”. Besides, in data set [2] (60% Ethanol/40% water), the “concentration achieved without precipitation” value was 19000 µg/mL. For the same compound, the “final concentration of solution, titrated with water until precipitates formed” value in data set [2] (75:25 ethanol to water) was 37.5 mg/mL.

For `O=C1CC[C@@]2(O)[C@H]3Cc4ccc(O)c5c4[C@@]2(CCN3CC2CC2)[C@H]1O5` [Naltrexone HCl, naltrexone hydrochloride], the “signs produced by high doses” value in the data set with animals (high doses, generally >1,000 mg/kg) was “salivation, depression/reduced activity, tremors, and convulsions”. In addition, the evidence of toxicity result in the data set with humans is “no evidence of toxicity”. Besides, the “oral LD50” value with rat was 1,450 mg/kg; with guinea pig, 1,490 mg/kg. The “duration of blockade of pharmacologic effects of heroin” value in data set [3] (50 mg naltrexone hydrochloride vs 25 mg intravenous heroin) is at most 24 hours. Further, the duration of blockade was 48 h in data set [3] (doubling the dose of naltrexone hydrochloride) and “about 72 hours” in data set [3] (tripling the dose of naltrexone hydrochloride). For the same compound, the “time on mechanical shaker until fully dissolved” value in data set [4] (50 mg/mL samples, periodic vortex mixing) turned out to be 1 h. For the same compound, the “total shaking time until dissolved” value in data set [4] (100 mg/mL in ethanol/water mixture) is 2 h. The solubility at 2 h in data set [4] (60%/40% ethanol/water, aqueous with cosolvent or surfactant or cyclodextrin, 60%/40% ethanol/water, read-out: solubility (soluble up to)) is at least 100 mg/mL; in data set [4] (60:40 ethanol:water, aqueous with cosolvent or surfactant or cyclodextrin, sample 100 mg/mL, 60:40 Ethanol:water, HPLC, read-out: Solubilized Concentration), 96.1 mg/mL. The solubility at 1 h came to 48.6 mg/mL in data set [4] (60:40 ethanol:water, aqueous with cosolvent or surfactant or cyclodextrin, 60:40 Ethanol:water, HPLC, read-out: Solubilized Concentration) and 49 mg/mL in data set [4] (100% water, water, 100% water, HPLC, read-out: Solubilized Concentration). In addition, the solubility is at least 100 mg/mL in data set [4] (100% water, water, 100% water, read-out: solubility (soluble up to)) and 96.9 mg/mL in data set [4] (100% water, water, sample 100 mg/mL, 100% water, HPLC, read-out: Solubilized Concentration).
